From ChEMBL document CHEMBL1140781, “4-Aminopyridine derivatives with anticholinesterase and antiamnesic activity” (Bioorg Med Chem Lett, 2008)

Experiments:
Rattus norvegicus [1] = experiment: Antiamnesic activity in scopolamine-induced memory deficit rat assessed as training trial latency time at 0.001 mg/kg, ip; type: functional; conditions: route intraperitoneal
Rattus norvegicus [2] = experiment: Antiamnesic activity in scopolamine-induced memory deficit rat assessed as training trial latency time at 0.005 mg/kg, ip; type: functional; conditions: route intraperitoneal
Rattus norvegicus [3] = experiment: Antiamnesic activity in scopolamine-induced memory deficit rat assessed as training trial latency time at 0.01 mg/kg, ip; type: functional; conditions: route intraperitoneal
Rattus norvegicus [4] = experiment: Antiamnesic activity in scopolamine-induced memory deficit rat assessed as training trial latency time at 0.1 mg/kg, ip; type: functional; conditions: route intraperitoneal
Rattus norvegicus [5] = experiment: Antiamnesic activity in scopolamine-induced memory deficit rat assessed as retention trial latency time at 0.001 mg/kg, ip after 24 hrs; type: functional; conditions: route intraperitoneal
Rattus norvegicus [6] = experiment: Antiamnesic activity in scopolamine-induced memory deficit rat assessed as retention trial latency time at 0.005 mg/kg, ip after 24 hrs; type: functional; conditions: route intraperitoneal
Rattus norvegicus [7] = experiment: Antiamnesic activity in scopolamine-induced memory deficit rat assessed as retention trial latency time at 0.01 mg/kg, ip after 24 hrs; type: functional; conditions: route intraperitoneal
Rattus norvegicus [8] = experiment: Antiamnesic activity in scopolamine-induced memory deficit rat assessed as retention trial latency time at 0.1 mg/kg, ip after 24 hrs; type: functional; conditions: route intraperitoneal
Acetylcholinesterase = Acetylcholinesterase (Homo sapiens, UniProt P22303); experiment: Inhibition of acetylcholinesterase
Cholinesterase = Cholinesterase (Homo sapiens, UniProt P06276); experiment: Inhibition of butyrylcholinesterase
Rattus norvegicus [9] = experiment: Antiamnesic activity in scopolamine-induced memory deficit rat assessed as training trial latency time at 17.37 mg/kg, ip; type: functional; conditions: route intraperitoneal
Rattus norvegicus [10] = experiment: Antiamnesic activity in scopolamine-induced memory deficit rat assessed as training trial latency time at 34.73 mg/kg, ip; type: functional; conditions: route intraperitoneal
Rattus norvegicus [11] = experiment: Antiamnesic activity in scopolamine-induced memory deficit rat assessed as retention trial latency time at 17.37 mg/kg, ip after 24 hrs; type: functional; conditions: route intraperitoneal
Rattus norvegicus [12] = experiment: Antiamnesic activity in scopolamine-induced memory deficit rat assessed as retention trial latency time at 34.73 mg/kg, ip after 24 hrs; type: functional; conditions: route intraperitoneal
Rattus norvegicus [13] = experiment: Antiamnesic activity in scopolamine-induced memory deficit rat assessed as training trial time at 0.024 mg/kg, ip; type: functional; conditions: route intraperitoneal
Rattus norvegicus [14] = experiment: Antiamnesic activity in scopolamine-induced memory deficit rat assessed as training trial latency time at 0.24 mg/kg, ip; type: functional; conditions: route intraperitoneal
Rattus norvegicus [15] = experiment: Antiamnesic activity in scopolamine-induced memory deficit rat assessed as training trial latency time at 1.2 mg/kg, ip; type: functional; conditions: route intraperitoneal
Rattus norvegicus [16] = experiment: Antiamnesic activity in scopolamine-induced memory deficit rat assessed as training trial latency time at 2.4 mg/kg, ip; type: functional; conditions: route intraperitoneal
Rattus norvegicus [17] = experiment: Antiamnesic activity in scopolamine-induced memory deficit rat assessed as retention trial latency time at 0.024 mg/kg, ip after 24 hrs; type: functional; conditions: route intraperitoneal
Rattus norvegicus [18] = experiment: Antiamnesic activity in scopolamine-induced memory deficit rat assessed as retention trial latency time at 0.24 mg/kg, ip after 24 hrs; type: functional; conditions: route intraperitoneal
Rattus norvegicus [19] = experiment: Antiamnesic activity in scopolamine-induced memory deficit rat assessed as retention trial latency time at 1.2 mg/kg, ip after 24 hrs; type: functional; conditions: route intraperitoneal
Rattus norvegicus [20] = experiment: Antiamnesic activity in scopolamine-induced memory deficit rat assessed as retention trial latency time at 2.4 mg/kg, ip after 24 hrs; type: functional; conditions: route intraperitoneal
Rattus norvegicus [21] = experiment: Antiamnesic activity in scopolamine-induced memory deficit rat assessed as training trial latency time at 0.02 mg/kg, ip; type: functional; conditions: route intraperitoneal
Rattus norvegicus [22] = experiment: Antiamnesic activity in scopolamine-induced memory deficit rat assessed as training trial latency time at 1.0 mg/kg, ip; type: functional; conditions: route intraperitoneal
Rattus norvegicus [23] = experiment: Antiamnesic activity in scopolamine-induced memory deficit rat assessed as training trial latency time at 100 mg/kg, ip; type: functional; conditions: route intraperitoneal
Rattus norvegicus [24] = experiment: Antiamnesic activity in scopolamine-induced memory deficit rat assessed as retention trial latency time at 0.02 mg/kg, ip after 24 hrs; type: functional; conditions: route intraperitoneal
Rattus norvegicus [25] = experiment: Antiamnesic activity in scopolamine-induced memory deficit rat assessed as retention trial latency time at 1.0 mg/kg, ip after 24 hrs; type: functional; conditions: route intraperitoneal
Rattus norvegicus [26] = experiment: Antiamnesic activity in scopolamine-induced memory deficit rat assessed as retention trial latency time at 100 mg/kg, ip after 24 hrs; type: functional; conditions: route intraperitoneal
Rattus norvegicus [27] = experiment: Antiamnesic activity in scopolamine-induced memory deficit rat assessed as training trial latency time at 0.5 mg/kg, ip; type: functional; conditions: route intraperitoneal
Rattus norvegicus [28] = experiment: Antiamnesic activity in scopolamine-induced memory deficit rat assessed as training trial latency time at 50 mg/kg, ip; type: functional; conditions: route intraperitoneal
Rattus norvegicus [29] = experiment: Antiamnesic activity in scopolamine-induced memory deficit rat assessed as retention trial latency time at 0.5 mg/kg, ip after 24 hrs; type: functional; conditions: route intraperitoneal
Rattus norvegicus [30] = experiment: Antiamnesic activity in scopolamine-induced memory deficit rat assessed as retention trial latency time at 50 mg/kg, ip after 24 hrs; type: functional; conditions: route intraperitoneal

Chain of Acetylcholinesterase (P22303 whole entry): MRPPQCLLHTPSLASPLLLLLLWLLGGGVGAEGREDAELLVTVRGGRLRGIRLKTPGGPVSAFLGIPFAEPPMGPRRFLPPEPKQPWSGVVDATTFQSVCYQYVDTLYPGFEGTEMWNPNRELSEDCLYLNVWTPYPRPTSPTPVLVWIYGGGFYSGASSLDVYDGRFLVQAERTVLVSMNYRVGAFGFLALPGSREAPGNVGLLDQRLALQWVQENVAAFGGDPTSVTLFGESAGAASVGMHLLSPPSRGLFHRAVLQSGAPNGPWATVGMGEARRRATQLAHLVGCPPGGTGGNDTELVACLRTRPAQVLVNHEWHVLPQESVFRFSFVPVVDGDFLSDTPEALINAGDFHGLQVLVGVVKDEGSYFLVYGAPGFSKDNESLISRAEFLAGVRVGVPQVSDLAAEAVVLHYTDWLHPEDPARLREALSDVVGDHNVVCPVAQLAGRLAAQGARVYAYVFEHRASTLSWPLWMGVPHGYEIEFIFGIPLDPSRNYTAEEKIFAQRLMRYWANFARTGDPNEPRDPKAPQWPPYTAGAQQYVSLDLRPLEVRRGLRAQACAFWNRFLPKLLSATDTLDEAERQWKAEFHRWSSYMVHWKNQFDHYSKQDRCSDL
Chain of Cholinesterase (P06276 whole entry): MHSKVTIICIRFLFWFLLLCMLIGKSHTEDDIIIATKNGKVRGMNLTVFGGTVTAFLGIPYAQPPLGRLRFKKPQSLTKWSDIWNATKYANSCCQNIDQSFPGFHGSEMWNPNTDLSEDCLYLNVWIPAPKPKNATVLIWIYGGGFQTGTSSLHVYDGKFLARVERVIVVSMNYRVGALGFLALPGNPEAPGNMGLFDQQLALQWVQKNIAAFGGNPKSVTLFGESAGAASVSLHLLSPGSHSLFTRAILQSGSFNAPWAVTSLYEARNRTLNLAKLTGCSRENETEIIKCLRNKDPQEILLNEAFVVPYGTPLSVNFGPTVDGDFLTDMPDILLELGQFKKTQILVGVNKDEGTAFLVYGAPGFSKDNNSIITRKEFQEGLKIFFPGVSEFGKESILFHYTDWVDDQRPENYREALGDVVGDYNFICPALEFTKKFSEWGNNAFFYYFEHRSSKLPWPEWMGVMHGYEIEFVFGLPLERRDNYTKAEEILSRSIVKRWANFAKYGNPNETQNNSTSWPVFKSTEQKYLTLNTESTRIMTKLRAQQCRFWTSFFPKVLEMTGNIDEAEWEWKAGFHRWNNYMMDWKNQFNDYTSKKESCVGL

Question: Which Time (Rattus norvegicus [1]) does the source give for `Nc1ccncc1` [DALFAMPRIDINE] here?
Answer: 20.8 s

Question: And the Time (Rattus norvegicus [2])?
Answer: 22.1 s

Question: And the Time (Rattus norvegicus [3])?
Answer: 46.3 s

Question: And the Time (Rattus norvegicus [4])?
Answer: 20.3 s

Question: And the Time (Rattus norvegicus [5])?
Answer: 38.5 s

Question: And the Time (Rattus norvegicus [6])?
Answer: 92.3 s

Question: And the Time (Rattus norvegicus [7])?
Answer: 63.5 s

Question: What about the Time (Rattus norvegicus [8]) of the same compound?
Answer: 33.6 s

Question: For `CN(C)CCOC(=O)Nc1ccncc1Br`, which Ki (Acetylcholinesterase) is on record?
Answer: 316 µM

Question: And the Ki (Cholinesterase)?
Answer: 273 µM

Question: With `CC(C)(C)C(=O)OCC[N+](C)(C)C.CC(C)(C)C(=O)[O-]` as the compound, how does the Time (Rattus norvegicus [9]) read?
Answer: 38.8 s

Question: And the Time (Rattus norvegicus [10])?
Answer: 14.5 s

Question: And the Time (Rattus norvegicus [11])?
Answer: 36.8 s

Question: And the Time (Rattus norvegicus [12])?
Answer: 45.8 s

Question: How did the Ki (Acetylcholinesterase) turn out when `C[N+](C)(C)CCOC(=O)Nc1cc(Cl)nc(Cl)c1.[I-]` was run?
Answer: 64.4 µM

Question: What about the Ki (Cholinesterase) of the same compound?
Answer: 19.5 µM

Question: And the Time (Rattus norvegicus [13])?
Answer: 14.4 s

Question: And the Time (Rattus norvegicus [14])?
Answer: 19.7 s

Question: And the Time (Rattus norvegicus [15])?
Answer: 21.4 s

Question: And the Time (Rattus norvegicus [16])?
Answer: 19 s

Question: And the Time (Rattus norvegicus [17])?
Answer: 36.8 s

Question: And the Time (Rattus norvegicus [18])?
Answer: 56.9 s

Question: What about the Time (Rattus norvegicus [19]) of the same compound?
Answer: 92.9 s

Question: And the Time (Rattus norvegicus [20])?
Answer: 32.3 s

Question: What does the source list for `C[N+](C)(C)CCOC(=O)Nc1ccncc1Br`?
Answer: Ki (Acetylcholinesterase): 116 µM; Ki (Cholinesterase): 274 µM

Question: What does the source list for `C[N+](C)(C)CCOC(=O)Nc1ccncc1.[I-]`?
Answer: Ki (Acetylcholinesterase): 159 µM; Ki (Cholinesterase): 754 µM; Time (Rattus norvegicus [21]): 37.3 s; Time (Rattus norvegicus [22]): 21.4 s; Time (Rattus norvegicus [23]): 30.6 s; Time (Rattus norvegicus [24]): 40.4 s; Time (Rattus norvegicus [25]): 21 s; Time (Rattus norvegicus [26]): 21.3 s

Question: `CN(C)CCOC(=O)Nc1ccnc(Cl)c1` was tested. Which Ki (Acetylcholinesterase) did it give?
Answer: 208 µM

Question: What about the Ki (Cholinesterase) of the same compound?
Answer: 380 µM

Question: Which results are given for `C[N+](C)(C)CCOC(=O)Nc1ccnc(Cl)c1`?
Answer: Ki (Acetylcholinesterase): 151 µM; Ki (Cholinesterase): 161 µM

Question: With `CN(C)CCOC(=O)Nc1cc(Cl)nc(Cl)c1` as the compound, how does the Ki (Acetylcholinesterase) read?
Answer: 140 µM

Question: And the Ki (Cholinesterase)?
Answer: 174 µM

Question: With `CN(C)CCOC(=O)Nc1ccncc1` as the compound, how does the Ki (Acetylcholinesterase) read?
Answer: 314 µM

Question: And the Ki (Cholinesterase)?
Answer: 20.4 µM

Question: And the Time (Rattus norvegicus [3])?
Answer: 20.3 s

Question: And the Time (Rattus norvegicus [27])?
Answer: 43.6 s

Question: And the Time (Rattus norvegicus [28])?
Answer: 25.5 s

Question: And the Time (Rattus norvegicus [7])?
Answer: 12.1 s

Question: What about the Time (Rattus norvegicus [29]) of the same compound?
Answer: 49.7 s

Question: What about the Time (Rattus norvegicus [30]) of the same compound?
Answer: 39.6 s
